Reference: patent US20100075907A1, “NEUROMEDIN U RECEPTOR AGONISTS AND USES THEREOF” (priority 2006, published 2010)
Non-standard residues stand in square brackets, D forms with d. Residues, ends and D or L forms follow the SMILES beside them.

What was measured:
rat NMUR1-TTG = target: T1, rat NMUR1-TTG (Rattus norvegicus, UniProt Q9JJI5); experiment: FLIPR calcium mobilization assay, rat NMUR1-TTG; type: cell-based; set-up: expressed in transfected cells; host or cells: FLP-In CHO or HEK-293 FLP-In cells (pcDNA5); details: functional, rat R1-TTG, relative to native hNMU responses
T1 sequence (Q9JJI5 1-425): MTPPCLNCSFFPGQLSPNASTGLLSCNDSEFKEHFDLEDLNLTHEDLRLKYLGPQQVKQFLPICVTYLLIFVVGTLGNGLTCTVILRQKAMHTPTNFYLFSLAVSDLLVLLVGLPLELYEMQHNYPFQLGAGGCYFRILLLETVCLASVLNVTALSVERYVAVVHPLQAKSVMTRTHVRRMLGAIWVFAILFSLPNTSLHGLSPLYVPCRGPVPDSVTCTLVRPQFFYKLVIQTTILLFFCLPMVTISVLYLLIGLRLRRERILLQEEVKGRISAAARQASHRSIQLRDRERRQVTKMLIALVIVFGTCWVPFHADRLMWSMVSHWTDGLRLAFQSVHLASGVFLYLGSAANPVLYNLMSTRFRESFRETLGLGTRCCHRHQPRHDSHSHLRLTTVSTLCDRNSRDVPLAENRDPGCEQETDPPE
Description: Human, mouse or rat cDNAs encoding NMUR1 or NMUR2 (as described in Howard et al. Nature 406: 70-74 (2000) were subcloned in pcDNA5 (Invitrogen) and transfected into FLP-In CHO cells and HEK-293 FLP-In cells purchased from Invitrogen (Carlsbad, Calif.) using lipofectamine (Invitrogen). The Flp-In system allows integration and expression of a particular gene of interest at a specific genomic location utilizing the Flp recombinase from yeast. The transfected cells were selected by growth in medium containing 200 μg/mL hygromycin (Invitrogen). Populations were frozen at early passage numbers, and these stocks were used for further studies. Stable clones that expressed the mRNAs were identified functionally by FLIPR as well as by RT-PCR. […] Two different rodent NMUR1 cell lines were thus generated: one with the codon as predicted from the genomic databases and another cell line with an engineered methionine (ATG) as the start codon. Additionally, stable cell lines expressing the human receptors were generated in HEK-293/aeq17 cells which stably express the aequorin gene under the CMV promoter. The human NMUR2 cDNA was cloned into pcDNA3.1 and human NMUR1 was subcloned into pIRES-puro (Clontech, Mountain View, Calif.), after transfection cells were selected in media containing G418 and either hygromycin (NMUR2) or puromycin (NMUR1).
The NMU receptors signal primarily through Gαq/11 proteins; therefore calcium mobilization assays can be utilized for functional activity.
Stable cell lines expressing human and or rodent NMUR1 or human NMUR2 receptors were plated at a density of 12,000 cells per well overnight on poly-lysine coated 384-well black-walled plates. The following day, the media was removed from the plates and the cells were subsequently loaded with Fluo-3 (Molecular Probes), a calcium sensitive dye, diluted in FLIPR buffer (1× Hank's buffered saline containing 20 mM HEPES, 0.1% BSA, 2.5 mM probenecid (Sigma) and 1.6 mM TR40). All reagents are from Invitrogen unless otherwise noted. Peptide stocks were resuspended in DMSO at a stock concentration of 2 mM and diluted in FLIPR buffer on the day of the experiment to a 4 μM working stock solution.
After a 90 minute incubation at room-temperature, cell plates were loaded onto a FLIPR (Molecular Devices) to monitor cellular fluorescence (excitation=488 nm; emission=540 nm) before and after compound/peptide addition. Eight to twelve point dose responses were tested on NMUR-expressing cell lines using FLIPR with 1 μM peptide as the highest dose. The response after peptide addition was taken as the maximum fluorescence units minus the fluorescence immediately prior to stimulation for each well. EC50 values were calculated using GraphPad Prism (San Diego, Calif.) software.
In vitro responses of Neuromedin U receptor agonists (NMU1 to NMU25) in the FLIPR assay for human (Table 3), mouse (Table 4) and rat (Table 5) NMUR1 and NMUR2. EC50s are reported in nM values. Percent activity refers to the maximum response at 1 μM compared to the hNMU-25 response at the same concentration. NT=not tested.

hNMUR2 = hNMUR2 (Homo sapiens, UniProt Q9GZQ4); experiment: 125I-hNMU-25 binding assay, human NMUR2 membranes; set-up: expressed in transfected cells; host or cells: HEK-293 FLP-In cells (pcDNA5); HEK-293/aeq17 lines (pcDNA3.1) were also made; % inhibition of NMU-25 binding / % Activity: concentration or dose not given beside the values
Sequence of hNMUR2 (Q9GZQ4 whole entry): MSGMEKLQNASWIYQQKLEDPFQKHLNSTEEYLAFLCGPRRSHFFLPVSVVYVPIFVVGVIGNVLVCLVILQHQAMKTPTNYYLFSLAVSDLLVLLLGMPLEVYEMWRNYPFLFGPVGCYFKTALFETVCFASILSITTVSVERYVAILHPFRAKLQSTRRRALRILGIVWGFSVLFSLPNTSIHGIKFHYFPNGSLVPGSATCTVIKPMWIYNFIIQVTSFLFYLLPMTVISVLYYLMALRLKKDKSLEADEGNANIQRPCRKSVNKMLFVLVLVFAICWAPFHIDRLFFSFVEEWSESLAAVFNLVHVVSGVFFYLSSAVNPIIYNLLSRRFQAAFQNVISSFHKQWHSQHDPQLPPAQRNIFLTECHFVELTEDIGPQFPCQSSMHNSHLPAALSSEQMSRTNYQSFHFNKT
Description: Confluent cell monolayers expressing NMU receptors (the HEK cells described above) were harvested with phosphate buffered saline, collected by centrifugation, and resuspended in membrane buffer (50 mM TrisCl pH 7.4, 5 mM MgCl2, 1× Protease Inhibitor Cocktail, 10 μM phosphoramidon). After the cell pellet was homogenized, the solution was centrifuged at 18,000 rpm for 20 minutes at 4° C. The pellet was resuspended in membrane buffer to yield a final concentration of 0.5-5 μg/μL of membrane and stored at −80° C.
Experiments were performed in assay buffer (25 mM TrisCl, pH 7.4, 10 mM MgCl2, 2 mM EDTA, 1× Protease Inhibitor Cocktail, 100 μg/mL Bacitricin, 10 μM phosphoramidon) in 200 μL volumes in a 96-well format using 2-5 μg of membrane and 0.1 nM ^125I-hNMU-25 (about 12,000 cpm/well). For non-specific binding, 1 μM hNMU-25 was added. About 5 μL of peptides were added to measure antagonist activity, and the entire reaction was incubated at room temperature with shaking for 80 minutes. The reaction was terminated by rapid filtration through 0.3% poly-ethylenimine presoaked Millipore 96-well filter plates and washed with ice-cold buffer (5 mM TrisCl pH 7.4, 10 mM MgCl2, 2.5 mM EDTA, 0.04% Triton X-100). Plates were air-dried overnight at room temperature and recovered radioactivity was determined by standard scintillation counting. IC50 values were determined using GraphPad Prism software.
Concentration-response curves and radioligand-binding data were fitted using Prism (GraphPad Software). Results are summarized below in Tables 8 and 9.

Structure (SMILES): CC(C)C[C@@H](NC(=O)[C@H](Cc1ccccc1)NC(=O)[C@H](Cc1ccc(O)cc1)NC(=O)CNC(=O)[C@H](CCCNC(=N)N)NC(=O)[C@H](CO)NC(=O)[C@H](CCC(N)=O)NC(=O)[C@H](CO)NC(=O)[C@H](C)NC(=O)[C@H](Cc1ccccc1)NC(=O)[C@@H]1CCCN1C(=O)[C@H](CO)NC(=O)[C@H](CCC(N)=O)NC(=O)[C@H](Cc1ccccc1)NC(=O)[C@H](CCC(=O)O)NC(=O)[C@H](CCC(=O)O)NC(=O)[C@H](CC(=O)O)NC(=O)[C@@H](NC(=O)[C@H](CCCNC(=N)N)NC(=O)[C@@H](N)Cc1ccccc1)C(C)C)C(=O)N[C@@H](Cc1c[nH]c2ccccc12)C(=O)N[C@@H](CCCNC(=N)N)C(=O)N1CCC[C@H]1C(=O)N[C@@H](CCCNC(=N)N)C(=O)N[C@@H](CC(N)=O)C(N)=O [Agonist H] (H-FRVDEEFQSPFASQSRGYF[dL]WRPRN-NH2; N-terminus assumed)
- % Activity (rat NMUR1-TTG): 91%
- % Activity (hNMUR2; Table 8, HEK-hR2, binding): 7%
- IC50 (hNMUR2; binding, human R2): 782 nM
- % inhibition of NMU-25 binding (hNMUR2; human R2): 7%
